These results are taken from patent publication US20220257552A1, “METHODS OF PRESCREENING AND TREATING BREAST CANCERS WITH SELECTIVE ANDROGEN RECEPTOR MODULATORS” (priority 2021, published 2022).

One experiment concerns BR-0001 TNBC. Nature of the experiment: BR-0001 AR-positive TNBC xenograft in NSG mice. Type of experiment: in vivo. As to conditions: 10 mg/kg/day Formula IX or enzalutamide orally. The method, then:
Xenograft experiment. NSG mice obtained from JAX labs were housed with five animals per cage and were allowed free access to tap water and commercial rat chow (Harlan Teklad 22/5 rodent diet—8640). During the course of the study, the animals were maintained on a 12 hr light:dark cycle. Animals were anesthetized and BR-0001 TNBC fragments of 1 mm^3 (approximately) were implanted subcutaneously in NSG mice. […] Tumor volume was measured thrice weekly. Tumor volume was calculated using the formula length×width×width×0.5236. Once tumors reached greater than 1500-2000 mm^3, animals were sacrificed and tumors weighted and stored for various analysis. Two regions of the same BR-0001 tumor, an AR-positive TNBC xenograft, were immunohistochemically stained with AR antibody (AR N20 from SCBT) (FIGS. 26A and 26B) and compared to an AR-negative (FIG. 26C) TNBC as a negative control. […] The tumor xenograft efficacy experimental results are provided in 27A-27C, with FIGS. 27A and 27B being replicate experiments.
Tumors from replicate experiment 2 (FIG. 27B) were fixed in formalin and paraffin embedded. Slides were cut and stained with Ki-67 antibody. Ki-67 positive cells (total 200 cells were counted in each slide) in each slide were counted and represented as % stained cells, as shown in FIG. 28B.

A further experiment concerns HCI-7 PDX. Nature of the experiment: HCI-7 (HCI-007) patient-derived xenograft in NSG mice. Type of experiment: in vivo. As to conditions: Formula IX 10 mg/kg, enzalutamide 20 mg/kg, orally, vs vehicle. The method, then: HCI-007 tumor pieces (1 mm^3) were implanted surgically (one per mouse) under the skin on the flanks of NSG mice. Simultaneously, 17β-estradiol pellet (Innovative Research of America) was implanted surgically under the skin of each mouse. Tumors were allowed to grow and reach approximately 100 mm^3 volume (1*W*W*0.526). […] Tumor volume was measured weekly and represented as % change in tumor volume (FIG. 32). Mice were sacrificed and tumors stored for further analysis.
(§1) All animal protocols were approved by The University of Tennessee Health Science Center (UTHSC) Institutional Animal Care and Use Research Committee. Xenograft experiments were performed as previously published (Narayanan et al. (2014) PLoS One 9, e103202). Briefly, 3 million MCF-7 cells were suspended in 0.05 ml MEM+10% FBS and 0.05 ml Matrigel/nude mouse and were injected subcutaneously. Once the tumor size reached 100-200 mm^3, the animals were randomized and treated orally with the indicated drugs formulated in DMSO:PEG-300 (15:85). HCI-7, HCI-9, and HCI-13 PDXs were gifts kindly donated by Dr. Alana Welm (Huntsman Cancer Institute, Salt Lake City, Utah). HCI PDX tumor fragments (1 mm^3) were surgically implanted under the mammary fat pad in female NOD SCID Gamma (NSG) mice. Tumor volume was measured twice weekly for MCF-7 xenograft and once or twice weekly for HCI PDXs. At the end of the study, animals were sacrificed and tumors were excised, weighed, and stored for various analyses.
From the several PDXs available, three AR-positive PDXs were identified, based on gene expression profile. […] The enzalutamide dose was selected based on previous published experiments (Park et al. (2016) Cancer Invest 34, 517-520; Pollock et al. (2016) Nat Chem Biol 12, 795-801) as well as from internal experiments conducted in prostate cancer xenografts and in Hershberger studies.

The next experiment relates to HCI-9 PDX. Nature of the experiment: HCI-9 patient-derived xenograft in NSG mice. The settings on record: Formula IX 10 mpk, enzalutamide 30 mpk p.o. The format is in vivo. The procedure:
as §1
To determine if the same effect is observed in an AR-positive, but ER-negative breast cancer, HCI-9 tumor fragments were implanted under the mammary fat pad of NSG mice.

A further experiment has as its system MCF-7-GFP cells. Type of experiment: cell-based, human. As to conditions: 10 days. An excerpt:
Tumor microenvironment contains tumor epithelial cells, stromal cells, cancer-associated fibroblasts (CAFs), and endothelial cells. The collective function of these cells promotes the aggressive growth of tumors due to secretion of paracrine factors. The CAFs are important for the sustained growth of cancers, and they differ from normal fibroblasts in their capacity to secrete factors that promote proliferation of cancer cells. […] Medium was collected over a period of 10 days and pooled. CAFs were stained with SRB to evaluate the effect of AR ligands on proliferation.
Conditioned medium was replaced on days 4 and 7 and the cells were stained with SRB to measure viability.

The next experiment deals with HCI-13 tumor fragments. Kind of experiment: HCI-13 ex vivo sponge culture, real time PCR. Type of experiment: cell-based. The settings on record: 10 nM DHT, 1 μM Formula IX, 100 nM fulvestrant, 3 days. The procedure:
(§2) HCI-13 tumors grown in female mice were allowed to reach 500-1000 mm^3 before the animals were sacrificed and the tumors were excised to be used for sponge culture. Patient specimens frozen in liquid nitrogen in freezing medium were used for sponge culture. […] Tumors were sliced into small pieces (˜1 mm^3) and incubated on pre-soaked gelatin sponges (5 fragments/sponge) in 12 well plates containing 1.5 mL medium (MEM+10% FBS+2 mM L-glutamine+10 μg/mL insulin+10 μg/mL hydrocortisone+penicillin:streptomycin). The cultures were performed in triplicates for HCI-13 and singly for patient specimens. Pooled samples (n=5/sponge) from each sponge constituted one sample. Tissues were harvested after 3 days of treatment, RNA extracted, and expression of various genes measured. Although the same procedure was adopted for specimens obtained from breast cancer patients, the specimens were cultured singly (n=5/sponge=one sample) and not in triplicates as performed for HCI-13.

The target of the next experiment is HCI-13 ER-α (Homo sapiens, UniProt P03372, Y537S). As to conditions: 10 nM fulvestrant or 1 μM tamoxifen with 0.1 nM estradiol. The procedure: (§3) After 6 days of treatment, cells were harvested, and the number of cells was counted. […] Medium was changed after 3 days and re-treated. Cells were fixed after 6 days of treatment and the cell viability was measured by SRB assay. […] Medium was changed, and the cells were re-treated on days 4 and 7. Medium was collected, pooled from triplicates, and stored in −80° C. After 10 days of treatment, cells were fixed, and cell viability was measured using SRB. MCF-7 cells stably transfected with GFP (MCF-7-GFP) were plated in growth medium. Twenty-four hours after plating, cells were fed with the conditioned medium obtained from patient-derived fibroblasts as indicated above. Cells were fed for 10 days with conditioned medium, with medium changed on days 4 and 7. After 10 days of treatment, cells were fixed, and the viability was measured by SRB assay. […] AR-positive, but ER-negative HCI-9 PDX was surgically implanted as 1 mm^3 fragments under the mammary fat pad in NSG mice (n=8-10/group). […] Tumor volume was measured thrice weekly. […] ER-α from HCI-13 was cloned into pCR3.1 vector. Wildtype ER-α and HCI-13 ER-α, ERE-LUC, and CMV-LUC were transfected into COS-1 cells using lipofectamine. […] Twenty four hours after treatment cells were harvested and luciferase assay was performed. […] Values are expressed as average±S.E. from n=3-4/data point.

The target in a further experiment is Wildtype ER-α (Homo sapiens, UniProt P03372). The settings on record: 10 nM fulvestrant or 1 μM tamoxifen with 0.1 nM estradiol. The procedure: as §3
In experiment [1] the test system is breast cancer specimens obtained from patients. Nature of the experiment: Breast cancer patient specimens, ex vivo sponge culture. The format is cell-based, human. As to conditions: 1 μM Formula IX, 100 nM fulvestrant, 3 days. The method, then:
Specimens from breast cancer patients were collected with patient consent under a protocol approved by the UTHSC Institutional Review Board (IRB). Specimens were collected immediately after surgery in RPMI medium containing penicillin:streptomycin and Fungizone and transported to the laboratory on ice. The tissues were finely minced and treated with collagenase for 2 hours.
as §2
Like other cancers, breast cancer is also heterogeneous in its genomic profile as well as in its response to treatments. […] Three days after treatment, RNA was isolated from the tissues and expression of ER- and AR-target genes was measured.

Experiment [2] deals with metastatic ER+/HER2- breast cancer. As to conditions: cited from earlier work.
In experiment [3] the test system is TNBC. The settings on record: with nab-paclitaxel; cited from earlier work.
For experiment [4], the system named is TNBC. The settings on record: plus chemotherapy arm; cited from earlier work.

Wildtype ER-α, sequence (P03372 whole entry, species assumed): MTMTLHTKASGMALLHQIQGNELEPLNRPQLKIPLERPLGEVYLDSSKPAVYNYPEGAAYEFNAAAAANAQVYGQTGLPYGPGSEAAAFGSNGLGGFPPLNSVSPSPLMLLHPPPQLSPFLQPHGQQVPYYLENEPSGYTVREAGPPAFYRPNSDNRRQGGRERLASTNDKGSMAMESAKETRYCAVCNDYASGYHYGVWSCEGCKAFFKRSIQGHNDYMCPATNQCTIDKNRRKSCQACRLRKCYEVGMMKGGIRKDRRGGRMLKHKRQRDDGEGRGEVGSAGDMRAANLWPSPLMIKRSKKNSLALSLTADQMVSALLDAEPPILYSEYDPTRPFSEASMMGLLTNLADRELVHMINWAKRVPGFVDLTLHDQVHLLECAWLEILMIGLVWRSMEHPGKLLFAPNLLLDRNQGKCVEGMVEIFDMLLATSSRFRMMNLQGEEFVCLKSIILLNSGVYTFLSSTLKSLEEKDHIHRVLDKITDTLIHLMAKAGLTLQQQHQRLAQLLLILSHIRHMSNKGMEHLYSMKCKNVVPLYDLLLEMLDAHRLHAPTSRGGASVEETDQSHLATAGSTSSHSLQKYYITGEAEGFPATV
HCI-13 ER-α, sequence (P03372 whole entry Y537S): as the sequence (P03372 whole entry, species assumed) above, with Y537S counted along it

Take `CNC(=O)c1ccc(N2C(=S)N(c3ccc(C#N)c(C(F)(F)F)c3)C(=O)C2(C)C)cc1F` [enzalutamide, reference compound]: the tumor growth result in the experiment with BR-0001 TNBC was “indistinguishable from vehicle treatment”. In addition, in the experiment with HCI-7 PDX, the “tumor growth (% change in tumor volume)” value is listed as “grew comparably”. In addition, the tumor growth trajectory result in the experiment on HCI-9 PDX is recorded as “Neither Formula IX nor enzalutamide altered the growth trajectory”. Besides, the “proliferation of breast cancer CAFs” value in the experiment on MCF-7-GFP cells (10 nM DHT, 1 μM Formula IX, 1 μM enzalutamide) is “neither AR agonist, DHT and Formula IX, nor AR antagonist enzalutamide, affected the proliferation”. In addition, in the experiment on MCF-7-GFP cells, the “proliferation of MCF-7-GFP cells fed conditioned medium from treated CAFs” value was “not”.
Regarding `C[C@]12CC[C@@H]3c4ccc(O)cc4C[C@@H](CCCCCCCCC[S+]([O-])CCCC(F)(F)C(F)(F)F)[C@H]3[C@@H]1CC[C@@H]2O` (stereo partly shown) [fulvestrant], the “inhibition of ER-induced pS2 and PR gene expression” value in the experiment with HCI-13 tumor fragments was “ineffective”. In addition, the ER activity entry at HCI-13 ER-α is listed as “not inhibited”; at Wildtype ER-α, “inhibited”. In addition, in [1], the “specimens in which ER function was inhibited” value is on record as 4 of 8. Moreover, the “median PFS range” value in [2] (after failing one estrogen blocking therapy) was 4.6-9.3 months. For the same compound, in experiment [2] (depending on the trial), the objective response rate is on record as 10.9%-21.3%.
On to atezolizumab: PD-L1 blocking antibody, for which the “Median progression-free survival (PFS)” value with TNBC [3] is 7.4 months.
As to pembrolizumab: PD-L1 blocking antibody, in the experiment on TNBC [4], the “median PFS” value is 9.7 months.
